Here are results for 25 compounds from patent US20240226026A1, “BRANCHED TAIL LIPID COMPOUNDS AND COMPOSITIONS FOR INTRACELLULAR DELIVERY OF THERAPEUTIC AGENTS” (ModernaTX, Inc., priority 2021, published 2024).

Structures are written as SMILES.

A short description of series [1]: Apparent pKa of lipid nanoparticles. As to conditions: Table 2b; 95% confidence interval. It is filed as physicochemical.
Series [2] in a line: Lipid nanoparticle surface hydrophobicity by Generalized Polarization by Laurdan (N-GP). The class given is physicochemical. As to conditions: Table 2b; nanoparticles comprising the lipid. An excerpt:
Surface hydrophobicity of nanoparticles of the disclosure can be measured by Generalized Polarization by Laurdan (GPL). In this method, Laurdan, a fluorescent aminonaphthalene ketone lipid, is post-inserted into the nanoparticle surface and the fluorescence spectrum of Laurdan is collected to determine the normalized Generalized Polarization (N-GP). In some embodiments, nanoparticles formulated with lipids of the disclosure have a surface hydrophobicity expressed as N-GP of between about 0.5 and about 1.5. For example, in some embodiments, nanoparticles formulated with lipids of the disclosure have a surface hydrophobicity expressed as N-GP of about 0.5, about 0.6, about 0.7, about 0.8, about 0.9, about 1.0, about 1.1, about 1.2, about 1.3, about 1.4, or about 1.5. In some embodiments, nanoparticles formulated with lipids of the disclosure have a surface hydrophobicity expressed as N-GP of about 1.0 or about 1.1.

The next series deals with CD-1 mice. Nature of the series: Expression of hEPO induced by LNPs (mRNA encoding hEPO) administered to mice. The class given is in vivo. As to conditions: serum, 6 h after intravenous injection, ELLA Simple Plex Assay; for Avg. hEPO Concentration (mIU/mL): Table 4b. As to the method:
In some embodiments, hEPO concentrations were determined using an […] (ELLA) Simple Plex Assay (ProteinSimple) with a Human Erythroprotein cartridge. Standards for this assay are calibrated according to the 2. IRP WHO preparation. Nanoparticle compositions including mRNA are useful in the evaluation of the efficacy and usefulness of various formulations for the delivery of therapeutic and/or prophylactics. Higher levels of protein expression induced by administration of a composition including an mRNA will be indicative of higher mRNA translation and/or nanoparticle composition mRNA delivery efficiencies. As the non-RNA components are not thought to affect translational machineries themselves, a higher level of protein expression is likely indicative of a higher efficiency of delivery of the therapeutic and/or prophylactic by a given nanoparticle composition relative to other nanoparticle compositions or the absence thereof.
To assess potency of expression of lipids of the disclosure, the protein expression (hEPO) following administration of a nanoparticle comprising a lipid of the disclosure (e.g., a loaded LNP) to mice was measured.
Lipid nanoparticles (LNPs) including DSPC as a phospholipid, cholesterol as a structural lipid, PL-II (e.g., PEG-1) as a PEG lipid, a lipid according to Formula (I-1), (I), (I-A), (I-A1), (I-A2), (I-A3), or (I-A4), and an mRNA encoding hEPO were intravenously administered to CD-1 mice. The concentration of hEPO in serum was tested at 6 h after injection.

The nature of series [3]: Particle size (diameter) and polydispersity index of lipid nanoparticles. As to conditions: nanoparticles comprising the lipid. It is filed as physicochemical. As to the method:
A Zetasizer Nano ZS (Malvern Instruments Ltd, Malvern, Worcestershire, UK) can be used to determine the particle size, the polydispersity index (PDI) and the zeta potential of the nanoparticle compositions in 1×PBS in determining particle size and 15 mM PBS in determining zeta potential.
Lipid nanoparticles (e.g., empty LNPs or loaded LNPs) may be characterized by a variety of methods. For example, microscopy (e.g., transmission electron microscopy or scanning electron microscopy) may be used to examine the morphology and size distribution of a nanoparticle composition. Dynamic light scattering or potentiometry (e.g., potentiometric titrations) may be used to measure zeta potentials. Dynamic light scattering may also be utilized to determine particle sizes. Instruments such as the Zetasizer Nano ZS (Malvern Instruments Ltd, Malvern, Worcestershire, UK) may also be used to measure multiple characteristics of a nanoparticle composition, such as particle size, polydispersity index, and zeta potential.
(§1) Lipid nanoparticles (e.g., empty LNPs or loaded LNPs) including DSPC as a phospholipid, cholesterol as a structural lipid, PL-II (e.g., PEG-1) as a PEG lipid, and a lipid according to Formula (I-1), (I), (I-A), (I-A1), (I-A2), (I-A3), or (I-A4) were prepared. In some embodiments, the lipid nanoparticles further included rhodamine-DOPE as a fluorescent lipid. Tables 2a, 2b, and 3 summarize the characteristics of the formulations.

Series [4] in a line: Encapsulation efficiency (% EE) of lipid nanoparticles. The class given is physicochemical. As to conditions: nanoparticles comprising the lipid. As to the method:
For nanoparticle compositions including an RNA, a QUANT-IT™ RIBOGREEN® RNA assay (Invitrogen Corporation Carlsbad, CA) can be used to evaluate the encapsulation of an RNA by the nanoparticle composition. The samples are diluted to a concentration of approximately 5 μg/mL in a TE buffer solution (10 mM Tris-HCl, 1 mM EDTA, pH 7.5). 50 μL of the diluted samples are transferred to a polystyrene 96 well plate and either 50 μL of TE buffer or 50 μL of a 2% Triton X-100 solution is added to the wells. The plate is incubated at a temperature of 37° C. for 15 minutes. The RIBOGREEN® reagent is diluted 1:100 in TE buffer, and 100 μL of this solution is added to each well. The fluorescence intensity can be measured using a fluorescence plate reader (Wallac Victor 1420 Multilablel Counter; Perkin Elmer, Waltham, MA) at an excitation wavelength of, for example, about 480 nm and an emission wavelength of, for example, about 520 nm. The fluorescence values of the reagent blank are subtracted from that of each of the samples and the percentage of free RNA is determined by dividing the fluorescence intensity of the intact sample (without addition of Triton X-100) by the fluorescence value of the disrupted sample (caused by the addition of Triton X-100).
The efficiency of encapsulation of a therapeutic and/or prophylactic describes the amount of therapeutic and/or prophylactic that is encapsulated or otherwise associated with a lipid nanoparticle (e.g., an empty LNP or a loaded LNP) after preparation, relative to the initial amount provided. The encapsulation efficiency is desired to be high (e.g., close to 100%). The encapsulation efficiency may be measured, for example, by comparing the amount of therapeutic and/or prophylactic in a solution containing a loaded LNP before and after breaking up the loaded LNP with one or more organic solvents or detergents. Fluorescence may be used to measure the amount of free therapeutic and/or prophylactic (e.g., RNA) in a solution. For the loaded LNPs formulated with lipids of the disclosure, the encapsulation efficiency of a therapeutic and/or prophylactic is at least 50%, for example 50%, 55%, 60%, 65%, 70%, 75%, 80%, 85%, 90%, 91%, 92%, 93%, 94%, 95%, 96%, 97%, 98%, 99%, or 100%. In some embodiments, the encapsulation efficiency is at least 80%. In some embodiments, the encapsulation efficiency is at least 90%. In some embodiments, the encapsulation efficiency of the therapeutic and/or prophylactic agent is between 80% and 100%.
as §1

On to `CCCCCC(CCCCC)CCOC(=O)CCCCCCCN(CCCCCCCC(=O)OCCC(CCCC)CCCC)CCCNc1noc(N)n1` [Compound 9], for which the “Apparent pKa 95% CI” value in series [1] was 6.583 to 6.671. The “LNP surface hydrophobicity (N-GP*)” value in series [2] was determined as 0.98. Also, the “Avg. hEPO Concentration (mIU/mL)* ± Avg. SD” value in the series with CD-1 mice (Table 4a) was determined as 1.84E+06 ± 2.44E+04 mIU/mL. For the same compound, the “Diameter (nm)” value in series [3] (Table 2b) was 96.9 nm; in series [3] (Table 3) it was 69.7 nm. Moreover, the PDI in series [3] (Table 2b) is reported as 0.103; in series [3] (Table 3), 0.165. Besides, the “% EE” value was 91.9% in series [4] (Table 2b) and 91.2% in series [4] (Table 3). For `CCCCCCCCC(CCCCCCCC)OC(=O)CCCCCCCN(CCCCCCCC(=O)OCCC(CCCC)CCCC)CCCNC(=O)C1CN(C(C)=O)C1` [Compound 60], the “Avg. hEPO Concentration (mIU/mL)” value with CD-1 mice is 2.10E+02 mIU/mL.

Take `CCCCCCCCC(CCCCCCCC)OC(=O)CCCCCCCN(CCCCCCCC(=O)OCCC(CCCC)CCCC)CCCNC(=O)C(C)O` (stereo not drawn) [Compound 35]: the “Avg. hEPO Concentration (mIU/mL)” value in the series with CD-1 mice came to 1.54E+05 mIU/mL.

For `CCCCCCCCC(CCCCCCCC)OC(=O)CCCCCCCN(CCCCCCCC(=O)OCCC(CCCC)CCCC)CCCNC(=O)c1ccccc1` [Compound 33], the “Avg. hEPO Concentration (mIU/mL)” value in the series on CD-1 mice worked out at 1.78E+05 mIU/mL. Same read-out and setting: in the case of `CCCCCCCCC(CCCCCCCC)OC(=O)CCCCCCCN(CCCCCCCC(=O)OCCC(CCCC)CCCC)CCCNC(=O)COC` [Compound 38] it was 6.13E+05 mIU/mL. On the same count and under the same terms, in the case of `CC#CC(=O)NCCCN(CCCCCCCC(=O)OCCC(CCCC)CCCC)CCCCCCCC(=O)OC(CCCCCCCC)CCCCCCCC` [Compound 47] it was 1.17E+06 mIU/mL. The same measure, in the same setting: the figure for `CCCCCCCCC(CCCCCCCC)OC(=O)CCCCCCCN(CCCCCCCC(=O)OCCC(CCCC)CCCC)CCCNC(=O)C1CCOCC1` [Compound 40] is 2.16E+06 mIU/mL; for `CCCCCCCCC(CCCCCCCC)OC(=O)CCCCCCCN(CCCCCCCC(=O)OCCC(CCCC)CCCC)CCCNC(=O)C1(C)CCOC1` (stereo not drawn) [Compound 55] it is 2.61E+06 mIU/mL; for `CCCCCCCCC(CCCCCCCC)OC(=O)CCCCCCCN(CCCCCCCC(=O)OCCC(CCCC)CCCC)CCCNC(=O)C1CCN(C(C)=O)C1` (stereo not drawn) [Compound 48] it is 1.47E+02 mIU/mL.

On to `CCCCCCCCC(CCCCCCCC)OC(=O)CCCCCCCN(CCCCCCCC(=O)OCCC(CCCC)CCCC)CCCNC(=O)C1(C)CCCO1` (stereo not drawn) [Compound 56], for which the “Avg. hEPO Concentration (mIU/mL)” value with CD-1 mice was 1.17E+04 mIU/mL. Still for that read-out and setting: in the case of `CCCCCCCCC(CCCCCCCC)OC(=O)CCCCCCCN(CCCCCCCC(=O)OCCC(CCCC)CCCC)CCCNC(=O)C1(C)CCC1` [Compound 36] it was 1.41E+06 mIU/mL; in that of `CCCCCCCCC(CCCCCCCC)OC(=O)CCCCCCCN(CCCCCCCC(=O)OCCC(CCCC)CCCC)CCCNC(=O)C1CCCCC1` [Compound 41], 1.31E+06 mIU/mL. Same read-out and setting: in the case of `CCCCCCCCC(CCCCCCCC)OC(=O)CCCCCCCN(CCCCCCCC(=O)OCCC(CCCC)CCCC)CCCNC(=O)C1CCOC1` (stereo not drawn) [Compound 44] it was 1.02E+06 mIU/mL. The same measure, in the same setting: in the case of `CCCCCCCCC(CCCCCCCC)OC(=O)CCCCCCCN(CCCCCCCC(=O)OCCC(CCCC)CCCC)CCCNC(C)=O` [Compound 29] it was 7.06E+05 mIU/mL; in that of `CCCCCCCCC(CCCCCCCC)OC(=O)CCCCCCCN(CCCCCCCC(=O)OCCC(CCCC)CCCC)CCCNC(=O)C12CCC(CC1)CC2` [Compound 42], 1.02E+06 mIU/mL. On to `CCCCCCCCC(CCCCCCCC)OC(=O)CCCCCCCN(CCCCCCCC(=O)OCCC(CCCC)CCCC)CCCNC(=O)C1CC1` [Compound 39], for which the “Avg. hEPO Concentration (mIU/mL)” value with CD-1 mice is 2.93E+06 mIU/mL. Same read-out and setting: the figure for `CCCCCCCCC(CCCCCCCC)OC(=O)CCCCCCCN(CCCCCCCC(=O)OCCC(CCCC)CCCC)CCCNC(=O)CNC(C)=O` [Compound 46] is 3.88E+03 mIU/mL; for `CCCCCCCCC(CCCCCCCC)OC(=O)CCCCCCCN(CCCCCCCC(=O)OCCC(CCCC)CCCC)CCCNC(=O)C1(C)CCCCC1` [Compound 58] it is 4.17E+05 mIU/mL; for `CCCCCCCCC(CCCCCCCC)OC(=O)CCCCCCCN(CCCCCCCC(=O)OCCC(CCCC)CCCC)CCCNC(=O)C1CCCO1` (stereo not drawn) [Compound 43] it is 2.23E+06 mIU/mL. The same measure, in the same setting: in the case of `CCCCCCCCC(CCCCCCCC)OC(=O)CCCCCCCN(CCCCCCCC(=O)OCCC(CCCC)CCCC)CCCNC=O` [Compound 59] it was 3.27E+05 mIU/mL.

Consider `CCCCCCCCC(CCCCCCCC)OC(=O)CCCCCCCN(CCCCCCCC(=O)OCCC(CCCC)CCCC)CCCNC(=O)C(C)(C)C` [Compound 32], for which the “Avg. hEPO Concentration (mIU/mL)” value in the series with CD-1 mice worked out at 1.54E+06 mIU/mL.

On to `CCCCCCCCC(CCCCCCCC)OC(=O)CCCCCCCN(CCCCCCCC(=O)OCCC(CCCC)CCCC)CCCNC(=O)CC` [Compound 30], for which, in the series on CD-1 mice, the “Avg. hEPO Concentration (mIU/mL)” value is 4.73E+06 mIU/mL. In the case of `CCCCCCCCC(CCCCCCCC)OC(=O)CCCCCCCN(CCCCCCCC(=O)OCCC(CCCC)CCCC)CCCNC(=O)C#CC1CC1` [Compound 50], the “Avg. hEPO Concentration (mIU/mL)” value with CD-1 mice was 2.60E+05 mIU/mL.

As for `CCCCCCCCC(CCCCCCCC)OC(=O)CCCCCCCN(CCCCCCCC(=O)OCCC(CCCC)CCCC)CCCNC(=O)C(C)C` [Compound 31], the “Avg. hEPO Concentration (mIU/mL)” value in the series on CD-1 mice is recorded as 2.31E+06 mIU/mL.

On to `CCCCCCCCC(CCCCCCCC)OC(=O)CCCCCCCN(CCCCCCCC(=O)OCCC(CCCC)CCCC)CCCNC(=O)C1(CC)CC1` [Compound 37], for which, in the series on CD-1 mice, the “Avg. hEPO Concentration (mIU/mL)” value worked out at 1.39E+06 mIU/mL.
